The values that follow come from patent US11040035B2, “3-oxo-2,6-diphenyl-2,3-dihydropyridazine-4-carboxamides” (BAYER PHARMA AKTIENGESELLSCHAFT, priority 2016, dated 2021).

Usually IC50 stands for the point on the concentration scale where inhibition reaches its midpoint.

In experiment [1] the target is T1, AHR (Homo sapiens, UniProt P35869).
T1 sequence (P35869 11-848): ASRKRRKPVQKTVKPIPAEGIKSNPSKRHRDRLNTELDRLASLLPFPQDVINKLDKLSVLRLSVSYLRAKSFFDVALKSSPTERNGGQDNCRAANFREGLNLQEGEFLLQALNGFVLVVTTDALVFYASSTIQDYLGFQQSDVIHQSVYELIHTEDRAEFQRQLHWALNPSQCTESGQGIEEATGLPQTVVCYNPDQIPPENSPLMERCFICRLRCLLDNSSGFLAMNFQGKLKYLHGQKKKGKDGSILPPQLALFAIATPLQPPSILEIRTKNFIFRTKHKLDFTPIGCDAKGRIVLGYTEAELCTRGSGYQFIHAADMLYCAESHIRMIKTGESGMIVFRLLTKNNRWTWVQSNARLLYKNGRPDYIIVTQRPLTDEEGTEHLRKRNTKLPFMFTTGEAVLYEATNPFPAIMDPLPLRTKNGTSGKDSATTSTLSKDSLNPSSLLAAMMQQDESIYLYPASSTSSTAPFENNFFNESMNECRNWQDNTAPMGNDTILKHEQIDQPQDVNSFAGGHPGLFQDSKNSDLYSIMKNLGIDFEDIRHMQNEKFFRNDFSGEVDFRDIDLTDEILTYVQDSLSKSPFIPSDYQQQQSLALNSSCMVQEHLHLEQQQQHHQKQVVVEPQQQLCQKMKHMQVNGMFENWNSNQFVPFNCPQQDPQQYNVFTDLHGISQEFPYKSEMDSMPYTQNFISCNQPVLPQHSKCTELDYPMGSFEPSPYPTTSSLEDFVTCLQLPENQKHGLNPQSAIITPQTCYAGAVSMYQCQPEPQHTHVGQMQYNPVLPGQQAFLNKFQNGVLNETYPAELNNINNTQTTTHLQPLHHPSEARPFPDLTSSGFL
Description: In vitro assay 1: antagonism in human cell line (transactivation assay, kynurenic acid prestimulated). The following applies: Assay 1: AHR-luc Hum Antagonism IC50 [M], 150 μM kynurenic acid, 20 hours, firefly luciferase.

Experiment [2] addresses T1, AHR. The experiment is described as follows: In vitro assay 2: agonism in human cell line (transactivation assay).
Where [3] appears, read: Assay 2: AHR-luc Hum Agonism IC50 [M], no kynurenic acid, 20 hours, firefly luciferase.
Setting [4] is: read-out: Assay 2: AHR-luc Hum Agonism IC50, no kynurenic acid, 20 hours, firefly luciferase.

With `O=C(NC(CO)C1CCCO1)c1cc(-c2ccc(Cl)cc2)nn(-c2cccc(F)c2)c1=O` (racemic) [Example 230, 3,6-Anhydro-2-({[6-(4-chlorophenyl)-2-(3-fluorophenyl)-3-oxo-2,3-dihydropyridazin-4-yl]carbonyl}amino)-2,4,5-trideoxy-DL-erythro-hexitol and 1,4-anhydro-5-({[6-(4-chlorophenyl)-2-(3-fluorophenyl)-3-oxo-2,3-dihydropyridazin-4-yl]carbonyl}amino)-2,3,5-trideoxy-DL-threo-hexitol], the results for the IC50 against AHR [1] and at AHR [2] (setting [3]) were 1.37e-07 M and more than 2e-05 M, respectively.
Take `Cc1ccc(-c2cc(C(=O)NCC(O)C(C)C)c(=O)n(-c3cccc(F)c3)n2)cc1` (single isomer, unassigned; enantiomer 2) [Example 12, 2-(3-Fluorophenyl)-N-(2-hydroxy-3-methylbutyl)-6-(4-methylphenyl)-3-oxo-2,3-dihydropyridazine-4-carboxamide, enantiomer 2]: the results for the IC50 against AHR [1] and at AHR [2] (setting [4]) were 1.22e-07 M and more than 2e-05 M, respectively.
As to `COCC(O)CNC(=O)c1cc(-c2ccc(OC(F)F)cc2)nn(-c2cccc(F)c2)c1=O` (centres unmarked) [Example 160, 6-[4-(Difluoromethoxy)phenyl]-2-(3-fluorophenyl)-N-(2-hydroxy-3-methoxypropyl)-3-oxo-2,3-dihydropyridazine-4-carboxamide], the IC50 is 3.11e-07 M at AHR [1] and more than 2e-05 M at AHR [2] (setting [3]).
The like results for `CC(C)(O)CNC(=O)c1cc(-c2ccc(OC(F)(F)F)cc2)nn(-c2cccc(F)c2)c1=O` [Example 382, 2-(3-fluorophenyl)-N-(2-hydroxy-2-methylpropyl)-3-oxo-6-[4-(trifluoromethoxy)phenyl]-2,3-dihydropyridazine-4-carboxamide] were, in that order, 9e-08 M and more than 2e-05 M.
The like results for `COCCC(CO)NC(=O)c1cc(-c2ccc(C(F)(F)F)cc2)nn(-c2cccc(F)c2)c1=O` (single isomer, unassigned; (-)) [Example 313, (−)-2-(3-fluorophenyl)-N-(1-hydroxy-4-methoxybutan-2-yl)-3-oxo-6-[4-(trifluoromethyl)-phenyl]-2,3-dihydropyridazine-4-carboxamide] were, in that order, 1.67e-08 M and more than 2e-05 M.
In the case of `O=C(N[C@H]1COC[C@H]1O)c1cc(-c2ccc(Cl)cc2)nn(-c2cccc(F)c2)c1=O` (single isomer, unassigned) [Example 384, 6-(4-chlorophenyl)-2-(3-fluorophenyl)-N-[cis-4-hydroxytetrahydrofuran-3-yl]-3-oxo-2,3-dihydropyridazine-4-carboxamide], the IC50 was 2.4e-08 M at AHR [1] and more than 2e-05 M at AHR [2] (setting [3]).
For `C[C@@H](CO)NC(=O)c1cc(-c2ccc(Cl)cc2)nn(-c2cc(Cl)cc(Cl)c2)c1=O` [Example 309, 6-(4-Chlorophenyl)-2-(3,5-dichlorophenyl)-N-[(2S)-1-hydroxypropan-2-yl]-3-oxo-2,3-dihydropyridazine-4-carboxamide] the same measures were 9.87e-07 M and more than 2e-05 M.
For `CC(NC(=O)c1cc(-c2ccc(C(F)(F)F)cc2)nn(-c2cccc(F)c2)c1=O)C(O)C(F)(F)F` (single isomer, unassigned) [Example 269, Isomer no. 2 of 2-(3-fluorophenyl)-3-oxo-N-(4,4,4-trifluoro-3-hydroxybutan-2-yl)-6-[4-(trifluoromethyl)phenyl]-2,3-dihydropyridazine-4-carboxamide] the same measures were more than 2e-05 M and 3.85e-09 M.
For `O=C(NC(CO)C1CCOC1)c1cc(-c2ccc(OC(F)F)cc2)nn(-c2cccc(F)c2)c1=O` (centres unmarked) [Example 144, 6-[4-(Difluoromethoxy)phenyl]-2-(3-fluorophenyl)-N-{(2-hydroxy-1-tetrahydrofuran-3-yl)ethyl}-3-oxo-2,3-dihydropyridazine-4-carboxamide] the same measures were 8.37e-08 M and more than 2e-05 M.
Turning to `COC(=O)C(C)(C)CNC(=O)c1cc(-c2ccc(Cl)cc2)nn(-c2cccc(F)c2)c1=O` [Example 398, methyl 3-({[6-(4-chlorophenyl)-2-(3-fluorophenyl)-3-oxo-2,3-dihydropyridazin-4-yl]carbonyl}amino)-2,2-dimethylpropanoate], the IC50 at AHR [1] is 4.2e-07 M; against AHR [2] (setting [3]) it was more than 2e-05 M.
As to `CC(CCO)NC(=O)c1cc(-c2ccc(Cl)cc2)nn(-c2cccc(F)c2)c1=O` (single isomer, unassigned; (-)) [Example 208, (−)-6-(4-Chlorophenyl)-2-(3-fluorophenyl)-N-(4-hydroxybutan-2-yl)-3-oxo-2,3-dihydropyridazine-4-carboxamide], the 50% inhibitory concentration (IC50) on AHR [1] is 2e-07 M; on AHR [2] (setting [4]), more than 2e-05 M.
In the case of `O=C(N[C@@H]1CCCC[C@@H]1O)c1cc(-c2ccc(OC(F)F)cc2)nn(-c2cccc(F)c2)c1=O` (relative stereo) [Example 130, 6-[4-(Difluoromethoxy)phenyl]-2-(3-fluorophenyl)-N-(cis-2-hydroxycyclohexyl)-3-oxo-2,3-dihydropyridazine-4-carboxamide], the IC50 is 4.37e-08 M at AHR [1] and more than 2e-05 M at AHR [2] (setting [3]).
In the case of `CC(C)C(O)CNC(=O)c1cc(-c2ccc(Cl)cc2)nn(-c2cccc(Cl)c2)c1=O` (single isomer, unassigned) [Example 69, 2-(3-Chlorophenyl)-6-(4-chlorophenyl)-N-(2-hydroxy-3-methylbutyl)-3-oxo-2,3-dihydropyridazine-4-carboxamide], the IC50 at AHR [1] is 4.41e-07 M; at AHR [2] (setting [4]) it was more than 2e-05 M.
`O=C(N[C@@H]1CC[C@@H]1O)c1cc(-c2ccc(Cl)cc2)nn(-c2cccc(F)c2)c1=O` (single isomer, unassigned) [Example 358]: the IC50 was 1.15e-07 M against AHR [1] and more than 2e-05 M on AHR [2] (setting [3]).
As to `O=C(NC(CO)C1CCOC1)c1cc(-c2ccc(Cl)cc2)nn(-c2cccc(F)c2)c1=O` (single isomer, unassigned) [Example 42, 6-(4-Chlorophenyl)-2-(3-fluorophenyl)-N-[2-hydroxy-1-(tetrahydrofuran-3-yl)ethyl]-3-oxo-2,3-dihydropyridazine-4-carboxamide], the IC50 against AHR [1] was 3.44e-07 M; at AHR [2] (setting [4]) it was more than 2e-05 M.
Turning to `O=C(NC(CO)C1CCOCC1)c1cc(-c2ccc(Cl)cc2)nn(-c2cccc(F)c2)c1=O` (single isomer, unassigned) [Example 151, 6-(4-Chlorophenyl)-2-(3-fluorophenyl)-N-[2-hydroxy-1-(tetrahydro-2H-pyran-4-yl)ethyl]-3-oxo-2,3-dihydropyridazine-4-carboxamide], the IC50 on AHR [1] is 1.24e-07 M; on AHR [2] (setting [4]) it was more than 2e-05 M.
With `Cc1cccc(-n2nc(-c3ccc(Cl)cc3)cc(C(=O)NCC(O)C(F)(F)F)c2=O)c1` (single isomer, unassigned) [Example 368, 6-(4-chlorophenyl)-2-(3-methylphenyl)-3-oxo-N-(3,3,3-trifluoro-2-hydroxypropyl)-2,3-dihydropyridazine-4-carboxamide], the IC50 on AHR [1] is 1.86e-06 M; on AHR [2] (setting [4]) it was more than 2e-05 M.
Take `C[C@@H](CO)NC(=O)c1cc(-c2ccc(Cl)cc2)nn(-c2cccc(C#N)c2)c1=O` [Example 400, 6-(4-chlorophenyl)-2-(3-cyanophenyl)-N-[(2S)-1-hydroxypropan-2-yl]-3-oxo-2,3-dihydropyridazine-4-carboxamide]: the IC50 on AHR [1] is 8e-07 M; against AHR [2] (setting [3]), more than 2e-05 M.
For `C[C@@H](O)CNC(=O)c1cc(-c2ccc(Cl)cc2)nn(-c2cccc(F)c2)c1=O` [Example 35, 6-(4-Chlorophenyl)-2-(3-fluorophenyl)-N-[(2R)-2-hydroxypropyl]-3-oxo-2,3-dihydropyridazine-4-carboxamide] the same measures were 1.92e-07 M and more than 2e-05 M.
As for `CN1CCC(O)(CNC(=O)c2cc(-c3ccc(Cl)cc3)nn(-c3cccc(F)c3)c2=O)CC1` [Example 234, 6-(4-Chlorophenyl)-2-(3-fluorophenyl)-N-[(4-hydroxy-1-methylpiperidin-4-yl)methyl]-3-oxo-2,3-dihydropyridazine-4-carboxamide], the IC50 is 1.56e-06 M on AHR [1] and more than 2e-05 M on AHR [2] (setting [3]).
For `CC(C)OC[C@H](NC(=O)c1cc(-c2ccc(Cl)cc2)nn(-c2cccc(F)c2)c1=O)C(C)(C)O` [Example 390, 6-(4-chlorophenyl)-2-(3-fluorophenyl)-N-[(2S)-3-hydroxy-1-isopropoxy-3-methylbutan-2-yl]-3-oxo-2,3-dihydropyridazine-4-carboxamide] the same measures were 9.4e-07 M and more than 2e-05 M.
Regarding `COCC(O)CNC(=O)c1cc(-c2ccc(Cl)c(Cl)c2)nn(-c2cccc(F)c2)c1=O` (centres unmarked) [Example 303, 6-(3,4-Dichlorophenyl)-2-(3-fluorophenyl)-N-(2-hydroxy-3-methoxypropyl)-3-oxo-2,3-dihydropyridazine-4-carboxamide], the IC50 is 8.73e-07 M against AHR [1] and more than 2e-05 M at AHR [2] (setting [3]).
